This passage reports melting point and IC50 results from PMC7663531, “Synthesis, Molecular Docking Screening and Anti-Proliferative Potency Evaluation of Some New Imidazo[2,1-b]Thiazole Linked Thiadiazole Conjugates” (Molecules, 2020).

Data set [1] concerns HepG2 cells. In words: Anti-proliferative assay in vitro (SRB) on hepatic cancer cell line HepG2. It is filed as cell-based. As to conditions: Homo sapiens, 72 h exposure, tested from 100 to 0.1 µg/mL, Nd: no detectable activity in the used concentrations, DMSO 1%, read-out: HepG2 IC50 ± SD. As for the experimental part:
(§1) The results of anti-proliferative activity were calculated based on the IC50 (inhibitory concentration 50%), the concentration of a tested compound which inhibits 50% of the cells population. IC50 esteems were determined for each examination independently and mean qualities ± SD are introduced in Table 1. The movement of every subordinate at every fixation was tried in three-fold in a solitary test; which was rehashed 3–5 times. The aftereffects of the investigations on against proliferative action of tried mixes are summed up in Table 1
(§2) Cell lines: Hep-G2 (human hepatic disease) and BALB/3T3 (murine fibroblast) are being kept up in the Institute of Cancer, Cairo, Egypt. All malignant growth cell lines were obtained from American Type Culture Collection (Rockville, Maryland, USA) and kept up in the Institute of Cancer. HepG2 cells were refined in Eagle’s minimum essential medium (EMEM) and supplemented with 10% FBS; DMEM and RPMI1640 were choices for that function also. Suction included new culture medium each 2–3 days. HepG2 cell multiplying time was 48 h. BALB/3T3 cell line was refined in DMEM and enhanced with 2 mM L-glutamine, 10% fetal ox-like serum (GE Healthcare, Logan, UT, USA). To entry cells, cell monolayer with 1× PBS were flushed twice and pre-warmed (37 °C) 0.05% Trypsin-EDTA arrangement was added to cover the lower part of the jar; brooded for 5–7 min. As cells withdrew, the trypsin was killed by including 4× volume of complete development medium with 10% FBS and delicately suspended the cells by pipetting. To abstain from clustering, the phones were not upset by shaking the jar while sitting tight for separation. Split cells 1:4 at regular intervals or 1:8 like clockwork. Societies had been brooded at 37 °C in a humidified climate with 5% CO2.
(§3) All compounds were broken up in DMSO (stock arrangement 10 mg/mL) and consequently weakened in culture medium to arrive at the necessary fixations (going from 100 to 0.1 µg/mL).
(§4) 24 h before expansion of the tried exacerbates, the cells were plated in 96-well plates (Sarstedt, Germany) at thicknesses of 1 × 10^4 cells per well. The examination was performed after 72 h introduction to shifting centralizations of the tried mixes. The in vitro cytotoxic impact of all mixes was analyzed utilizing the SRB measure.
(§5) The subtleties of this strategy were depicted by Skehan et al.. The cells were joined to the lower part of plastic wells by fixing them with cold half TCA (trichloroacetic corrosive, Sigma-Aldrich Chemie GmbH, Steinheim, Germany) on the head of the way of life medium in each well. The plates were hatched at 4 °C for 1 h and afterward washed multiple times with faucet water. The cell material fixed with TCA was recolored with 0.4% sulphorhodamine B (SRB, Sigma-Aldrich Chemie GmbH, Steinheim, Germany) disintegrated in 1% acidic corrosive for 30 min. Unbound color was taken out by flushing (multiple times) in 1% acidic corrosive. The protein-bound color was removed with 10 mMunbufferedTris base for assurance of the optical thickness (λ = 540 nm) in Synergy H4 multi-mode microplate peruser (BioTek Instruments, Winooski, VT, USA).

In data set [2] the test system is BALB/3T3 (murine fibroblast). In words: Anti-proliferative assay in vitro (SRB) on normal cell line BALB/3T3. It is filed as cell-based. The settings on record: Mus musculus, 72 h exposure, tested from 100 to 0.1 µg/mL, Nd: no detectable activity in the used concentrations, DMSO 1%, read-out: BALAB/3T3 IC50 ± SD. On the procedure:
as §1, §2, §3, §4, §5

In the case of `CSC(=S)N/N=C(\C)c1sc2nc(-c3ccc(C)cc3)cn2c1C` [Compound 3, methyl 2-(1-(3-methyl-6-(p-tolyl)imidazo[2,1-b]thiazol-2-yl)ethylidene) hydrazinecarbodithioate], the melting point – broadly, the temperature of the solid-liquid transition – is 182 to 184 °C. `CC(=O)c1nn(-c2ccc(C)cc2)c(=NN=C(C)c2sc3nc(-c4ccc(C)cc4)cn3c2C)s1` [Compound 6a, 1-(5-((1-(3-Methyl-6-(p-tolyl)imidazo[2,1-b]thiazol-2-yl)ethylidene)hydrazono)-4-(p-tolyl)-4,5-dihydro-1,3,4-thiadiazol-2-yl)ethanone] yielded a melting point of 220 to 222 °C. In addition, the IC50 in data set [1] stood at 63.3 ± 12.8 µg/mL. The IC50 in data set [2] is 25.1 ± 12 µg/mL.

In turn, `COc1ccc(-n2nc(C(C)=O)sc2=NN=C(C)c2sc3nc(-c4ccc(C)cc4)cn3c2C)cc1` [Compound 6b, 1-(4-(4-Methoxyphenyl)-5-((1-(3-methyl-6-(p-tolyl)imidazo[2,1-b]thiazol-2-yl)ethylidene) hydrazono)-4,5-dihydro-1,3,4-thiadiazol-2-yl)ethanone] yielded a melting point of 216 to 218 °C. In addition, in data set [1], the IC50 was found to be 59.2 ± 9.27 µg/mL. `CC(=O)c1nn(-c2ccc(Cl)cc2)c(=NN=C(C)c2sc3nc(-c4ccc(C)cc4)cn3c2C)s1` [Compound 6c, 1-(4-(4-Chlorophenyl)-5-((1-(3-methyl-6-(p-tolyl)imidazo[2,1-b]thiazol-2-yl)ethylidene) hydrazono)-4,5-dihydro-1,3,4-thiadiazol-2-yl)ethanone] displayed a melting point of 192 to 194 °C. As for `CCOC(=O)c1nn(-c2ccccc2)c(=NN=C(C)c2sc3nc(-c4ccc(C)cc4)cn3c2C)s1` [Compound 6d, Ethyl 5-((1-(3-methyl-6-(p-tolyl)imidazo[2,1-b]thiazol-2-yl)ethylidene)hydrazono)-4-phenyl-4,5-dihydro-1,3,4-thiadiazole-2-carboxylate], the melting point fell in the range of 235 to 237 °C. Moreover, the IC50 in data set [1] was found to be 41.1 ± 8.32 µg/mL. On to `CCOC(=O)c1nn(-c2ccc(C)cc2)c(=NN=C(C)c2sc3nc(-c4ccc(C)cc4)cn3c2C)s1` [Compound 6e, Ethyl 5-((1-(3-methyl-6-(p-tolyl)imidazo[2,1-b]thiazol-2-yl)ethylidene)hydrazono)-4-(p-tolyl)-4,5-dihydro-1,3,4-thiadiazole-2-carboxylate], for which the melting point was in the range of 117 to 119 °C. `CCOC(=O)c1nn(-c2ccc(Br)cc2)c(=NN=C(C)c2sc3nc(-c4ccc(C)cc4)cn3c2C)s1` [Compound 6f, Ethyl 4-(4-bromophenyl)-5-((1-(3-methyl-6-(p-tolyl)imidazo[2,1-b]thiazol-2-yl)ethylidene) hydrazono)-4,5-dihydro-1,3,4-thiadiazole-2-carboxylate] had a melting point of 156 to 158 °C. Also, in data set [1], the IC50 stood at 57.5 ± 6.61 µg/mL. `CC(=NN=c1sc(C(=O)Nc2ccccc2)nn1-c1ccccc1)c1sc2nc(-c3ccc(C)cc3)cn2c1C` [Compound 6g, 5-((1-(3-Methyl-6-(p-tolyl)imidazo[2,1-b]thiazol-2-yl)ethylidene)hydrazono)-N,4-diphenyl-4,5-dihydro-1,3,4-thiadiazole-2-carboxamide] had a melting point of 209 to 211 °C. Moreover, the IC50 in data set [1] was determined as 33.2 ± 8.25 µg/mL. In addition, the IC50 in data set [2] was found to be 76.7 ± 4.14 µg/mL. The compound `CC(=NN=c1sc(C(=O)Nc2ccccc2)nn1-c1ccc([N+](=O)[O-])cc1)c1sc2nc(-c3ccc(C)cc3)cn2c1C` [Compound 6h, 5-((1-(3-Methyl-6-(p-tolyl)imidazo[2,1-b]thiazol-2-yl)ethylidene)hydrazono)-4-(4-nitrophenyl)-N-phenyl-4,5-dihydro-1,3,4-thiadiazole-2-carboxamide] registered a melting point of 241 to 243 °C. Regarding `CC(=NN=c1sc(-c2ccccc2)nn1-c1ccccc1)c1sc2nc(-c3ccc(C)cc3)cn2c1C` [Compound 6i, 2-(1-((3,5-Diphenyl-1,3,4-thiadiazol-2(3H)-ylidene)hydrazono)ethyl)-3-methyl-6-(p-tolyl) imidazo[2,1-b]thiazole], the melting point lay in the range of 273 to 275 °C. On to `CC(=NN=c1sc(-c2ccccc2)nn1-c1cccc(-n2nc(-c3ccccc3)sc2=NN=C(C)c2sc3nc(-c4ccc(C)cc4)cn3c2C)c1)c1sc2nc(-c3ccc(C)cc3)cn2c1C` [Compound 10, 1,3-Bis(2-((1-(3-methyl-6-(p-tolyl)imidazo[2,1-b]thiazol-2-yl)ethylidene)hydrazono)-5-phenyl-1,3,4-thiadiazol-3(2H)-yl)benzene], for which the melting point was > 300 °C. The IC50 in data set [1] worked out at 23.5 ± 4.48 µg/mL. The IC50 in data set [2] was 26.2 ± 3.21 µg/mL. Compound `CC(=O)c1nn(-c2cccc(-n3nc(C(C)=O)s/c3=N\N=C(/C)c3sc4nc(-c5ccc(C)cc5)cn4c3C)c2)/c(=N/N=C(\C)c2sc3nc(-c4ccc(C)cc4)cn3c2C)s1` [Compound 11, 1,1’-(4,4’-(1,3-Phenylene)bis(5-((1-(3-methyl-6-(p-tolyl)imidazo[2,1-b]thiazol-2-yl)ethylidene)hydrazono)-4,5-dihydro-1,3,4-thiadiazole-4,2-diyl))diethanone] displayed a melting point of 292 to 294 °C. In the case of `CC(=O)c1nn(-c2ccc(S(=O)(=O)c3ccc(-n4nc(C(C)=O)s/c4=N\N=C(/C)c4sc5nc(-c6ccc(C)cc6)cn5c4C)cc3)cc2)/c(=N/N=C(\C)c2sc3nc(-c4ccc(C)cc4)cn3c2C)s1` [Compound 12, 1,1’-(4,4’-(Sulfonylbis(4,1-phenylene))bis(5-((1-(3-methyl-6-(p-tolyl)imidazo[2,1-b]thiazol-2-yl)ethylidene)hydrazono)-4,5-dihydro-1,3,4-thiadiazole-4,2-diyl))diethanone], the melting point is > 300 °C. For the same compound, the IC50 in data set [1] was 12.7 ± 1.36 µg/mL. The IC50 in data set [2] is 8.34 ± 1.81 µg/mL. Regarding `COc1cccc2c1C(=O)c1c(O)c3c(c(O)c1C2=O)C[C@@](O)(C(=O)CO)C[C@@H]3O[C@H]1C[C@H](N)[C@H](O)[C@H](C)O1` [Doxorubicin, reference compound], the IC50 in data set [1] stood at 3.56 ± 0.46 µg/mL; in data set [2], 3.21 ± 0.32 µg/mL.
